In patent US9529005B2, “Modulating bacterial MAM polypeptides in pathogenic disease” (priority 2011, dated 2016):
Values after ≈ are worked out from the molar mass of the structure shown. Read-outs that look alike come from different tables or passages of the source.

Key:
Test in all cases: Antimicrobial susceptibility testing (MIC), BD Phoenix Automated Microbiology System; on interpretation of the result: key: R, resistant; I, intermediate; S, susceptible; R*: *As a rule, when ESBL is detected, an interpretation of susceptible or intermediate for penicillins, cephalosporins and aztreonam is reported as resistant
Type in all cases: cell-based
Escherichia coli = settings: for MIC: Escherichia coli, read-out: minimal inhibiting concentration
Text: (§1) The inventors performed antimicrobial susceptibility testing (AST) by determining the minimal inhibiting concentration (MIC) of a panel of antimicrobials on all twenty bacterial isolates using the BD Phoenix Automated Microbiology System (Table 3). Antimicrobial panels included several drugs from each of the four most commonly used classes of antimicrobials, aminoglycosides, β-lactams, carbapenems and fluoroquinolones. The panels also included antimicrobials from other classes, such as trimethoprim/sulfamethoxazole, but resistance to these was not considered in the classification of isolates as multidrug-resistant.

Acinetobacter baumannii = settings: for MIC: Acinetobacter baumannii
Text: as §1

Klebsiella ssp. = settings: for MIC: Klebsiella, read-out: minimal inhibiting concentration
Text: as §1

Pseudomonas aeruginosa = settings: for MIC: Pseudomonas aeruginosa, read-out: minimal inhibiting concentration
Text: as §1

[1] = Acinetobacter baumannii isolate 1
[2] = Acinetobacter baumannii isolate 2
[3] = Acinetobacter baumannii isolate 3
[4] = Acinetobacter baumannii isolate 4
[5] = Acinetobacter baumannii isolate 5
[6] = Pseudomonas aeruginosa isolate 1
[7] = Pseudomonas aeruginosa isolate 2
[8] = Pseudomonas aeruginosa isolate 3
[9] = Pseudomonas aeruginosa isolate 4
[10] = Pseudomonas aeruginosa isolate 5

CC1(C)S[C@@H]2[C@H](NC(=O)[C@H](N)c3ccccc3)C(=O)N2[C@H]1C(=O)O [Amp., Ampicillin]
interpretation of the result (Escherichia coli; Escherichia coli isolate 1): R
interpretation of the result (Escherichia coli; Escherichia coli isolate 2): R
minimal inhibiting concentration (Escherichia coli; Escherichia coli isolate 2): > 16 µg/mL
interpretation of the result (Escherichia coli; Escherichia coli isolate 3): R
minimal inhibiting concentration (Escherichia coli; Escherichia coli isolate 3): > 16 µg/mL
interpretation of the result (Escherichia coli; Escherichia coli isolate 4): R
minimal inhibiting concentration (Escherichia coli; Escherichia coli isolate 4): > 16 µg/mL
interpretation of the result (Escherichia coli; Escherichia coli isolate 5): R
minimal inhibiting concentration (Escherichia coli; Escherichia coli isolate 5): > 16 µg/mL
MIC (Escherichia coli): > 16 µg/mL
interpretation of the result (Acinetobacter baumannii; [1]): R
interpretation of the result (Acinetobacter baumannii; [2]): R
interpretation of the result (Acinetobacter baumannii; [3]): R
interpretation of the result (Acinetobacter baumannii; [4]): R
interpretation of the result (Acinetobacter baumannii; [5]): R
MIC (Acinetobacter baumannii; read-out: minimal inhibiting concentration, Acinetobacter baumannii isolate 1): > 16 µg/mL
MIC (Acinetobacter baumannii; read-out: minimal inhibiting concentration, Acinetobacter baumannii isolate 2): > 16 µg/mL
MIC (Acinetobacter baumannii; read-out: minimal inhibiting concentration, Acinetobacter baumannii isolate 3): > 16 µg/mL
MIC (Acinetobacter baumannii; read-out: minimal inhibiting concentration, Acinetobacter baumannii isolate 4): > 16 µg/mL
MIC (Acinetobacter baumannii; read-out: minimal inhibiting concentration, Acinetobacter baumannii isolate 5): > 16 µg/mL
interpretation of the result (Klebsiella ssp.; Klebsiella ssp. isolate 1): R
interpretation of the result (Klebsiella ssp.; Klebsiella ssp. isolate 2): R
minimal inhibiting concentration (Klebsiella ssp.; Klebsiella ssp. isolate 2): > 16 µg/mL
interpretation of the result (Klebsiella ssp.; Klebsiella ssp. isolate 3): R
minimal inhibiting concentration (Klebsiella ssp.; Klebsiella ssp. isolate 3): > 16 µg/mL
interpretation of the result (Klebsiella ssp.; Klebsiella ssp. isolate 4): R
minimal inhibiting concentration (Klebsiella ssp.; Klebsiella ssp. isolate 4): > 16 µg/mL
interpretation of the result (Klebsiella ssp.; Klebsiella ssp. isolate 5): R
minimal inhibiting concentration (Klebsiella ssp.; Klebsiella ssp. isolate 5): > 16 µg/mL
MIC (Klebsiella ssp.): > 16 µg/mL
interpretation of the result (Pseudomonas aeruginosa; [6]): R
interpretation of the result (Pseudomonas aeruginosa; [7]): R
minimal inhibiting concentration (Pseudomonas aeruginosa; [7]): > 16 µg/mL
interpretation of the result (Pseudomonas aeruginosa; [8]): R
minimal inhibiting concentration (Pseudomonas aeruginosa; [8]): > 16 µg/mL
interpretation of the result (Pseudomonas aeruginosa; [9]): R
minimal inhibiting concentration (Pseudomonas aeruginosa; [9]): > 16 µg/mL
interpretation of the result (Pseudomonas aeruginosa; [10]): R
minimal inhibiting concentration (Pseudomonas aeruginosa; [10]): > 16 µg/mL
MIC (Pseudomonas aeruginosa): > 16 µg/mL

CC(C)(O/N=C(\C(=O)N[C@@H]1C(=O)N2C(C(=O)[O-])=C(C[n+]3ccccc3)CS[C@H]12)c1csc(N)n1)C(=O)O [Ceft., Ceftazidime]
interpretation of the result (Escherichia coli; Escherichia coli isolate 1): R
interpretation of the result (Escherichia coli; Escherichia coli isolate 2): R
interpretation of the result (Escherichia coli; Escherichia coli isolate 3): R
interpretation of the result (Escherichia coli; Escherichia coli isolate 4): R
MIC (Escherichia coli; Escherichia coli isolate 1): > 16 µg/mL
MIC (Escherichia coli; Escherichia coli isolate 2): > 16 µg/mL
MIC (Escherichia coli; Escherichia coli isolate 3): > 16 µg/mL
MIC (Escherichia coli; Escherichia coli isolate 4): > 16 µg/mL
MIC (Escherichia coli; Escherichia coli isolate 5): 4 µg/mL (≈ 7.32 µM)
interpretation of the result (Acinetobacter baumannii; [1]): R
interpretation of the result (Acinetobacter baumannii; [2]): R
interpretation of the result (Acinetobacter baumannii; [3]): S
interpretation of the result (Acinetobacter baumannii; [4]): R
interpretation of the result (Acinetobacter baumannii; [5]): R
MIC (Acinetobacter baumannii; Acinetobacter baumannii isolate 1, read-out: minimal inhibiting concentration): > 16 µg/mL
MIC (Acinetobacter baumannii; Acinetobacter baumannii isolate 2, read-out: minimal inhibiting concentration): > 16 µg/mL
MIC (Acinetobacter baumannii; Acinetobacter baumannii isolate 3, read-out: minimal inhibiting concentration): 8 µg/mL (≈ 14.6 µM)
MIC (Acinetobacter baumannii; Acinetobacter baumannii isolate 4, read-out: minimal inhibiting concentration): > 16 µg/mL
MIC (Acinetobacter baumannii; Acinetobacter baumannii isolate 5, read-out: minimal inhibiting concentration): > 16 µg/mL
interpretation of the result (Klebsiella ssp.; Klebsiella ssp. isolate 1): R
interpretation of the result (Klebsiella ssp.; Klebsiella ssp. isolate 5): R
MIC (Klebsiella ssp.; Klebsiella ssp. isolate 1): > 16 µg/mL
MIC (Klebsiella ssp.; Klebsiella ssp. isolate 2): > 2 µg/mL
MIC (Klebsiella ssp.; Klebsiella ssp. isolate 3): > 2 µg/mL
MIC (Klebsiella ssp.; Klebsiella ssp. isolate 4): > 2 µg/mL
MIC (Klebsiella ssp.; Klebsiella ssp. isolate 5): > 16 µg/mL
interpretation of the result (Pseudomonas aeruginosa; [6]): R
interpretation of the result (Pseudomonas aeruginosa; [7]): S
interpretation of the result (Pseudomonas aeruginosa; [8]): R
interpretation of the result (Pseudomonas aeruginosa; [9]): R
interpretation of the result (Pseudomonas aeruginosa; [10]): R
MIC (Pseudomonas aeruginosa; [6]): > 16 µg/mL
MIC (Pseudomonas aeruginosa; [7]): 8 µg/mL (≈ 14.6 µM)
MIC (Pseudomonas aeruginosa; [8]): > 16 µg/mL
MIC (Pseudomonas aeruginosa; [9]): > 16 µg/mL
MIC (Pseudomonas aeruginosa; [10]): > 16 µg/mL
